# PMC2637266, “Quantification of gamma-secretase modulation differentiates inhibitor compound selectivity between two substrates Notch and amyloid precursor protein” (Molecular Brain, 2008)
# Like-named read-outs stand apart in the source and are kept apart here.
# Key:
# [1] = tested on: zebrafish embryos; design: method as in PMID 12101103; settings: treatment at late blastula stage; cited from earlier work
# [2] = biological target: γ-secretase; settings: read-out: IC50 for de novo Aβ and AICD generation in vitro; cited from earlier work
# [3] = biological target: T1, γ-secretase cleavage of APP (Homo sapiens, UniProt P49768); assay: Aβ ELISA from HEK293 cells transiently transfected with APP; type: cell-based
# T1 construct: endogenous in cells; host or cells: HEK293 stably expressing Swedish mutant human APP695, transiently transfected with NotchΔE
# Excerpt: (§1) Two cDNA constructs expressing chimeric APP and Notch were previously reported to generate chimeric "Notch-Aβ-like" (Nβ*) peptide. One construct has its transmembrane domain (TMD) replaced by the Notch TMD (APP-m-NOTCH) and the other with the juxtamembrane portion of the APP ectodomain (the α-secretase cleavage region) replaced by the corresponding sequence in Notch (APP-α-NOTCH). Taking advantage of different combinations of ELISA antibodies (see Methods), effects of cpd E on the generation of Aβ and Nβ* peptides from these chimeric APP-Notch substrates were quantified by ELISA.
# (§2) Individual construct APP, APP-α-Notch or APP-m-Notch was transiently transfected into HEK293 cells. These chimeric protein expressing cells were treated with cpd E, and the levels of Aβ and Nβ* were measured by ELISA. […] Similar results were obtained when m-Notch was expressed in HEK293 cells. At least two magnitude of difference was observed, with EC50 for cpd E was […], compared to EC50 for Nβ* at ~1 nM (Fig. 3B).
# (§3) Figure 3 Generation of Aβ and Nβ* from chimeric APP-Notch expressing cells. […] Levels of Nβ* in the media from cells expressing APP-α-Notch (dotted line) and levels of Aβ from APP expressing cells (solid line) were determined by ELISA. […] Levels of Aβ (solid line) and Nβ* (dotted line) were determined by ELISA. […]
# [4] = biological target: T2, γ-secretase cleavage of chimeric APP-m-NOTCH (Homo sapiens, UniProt P49768); assay: Nβ* ELISA from HEK293 cells expressing APP-m-Notch; type: cell-based
# T2 construct: endogenous in cells; host or cells: HEK293 transiently transfected with APP-m-Notch
# Excerpt: as §1, §2, §3
# [5] = biological target: T3, γ-secretase cleavage of chimeric APP-α-NOTCH (Homo sapiens, UniProt P49768); assay: Nβ* ELISA from HEK293 cells expressing APP-α-Notch; type: cell-based
# T3 construct: endogenous in cells; host or cells: HEK293 transiently transfected with APP-α-Notch
# Excerpt: as §1, §2, §3
Compound,zebrafish somitogenesis and neurogenesis [1],IC50 [2],"EC50 ([3]; EC for inhibiting 50% of Aβ production, APP expressing HEK293, α-Notch experiment, Fig. 3A)","EC50 ([3]; HEK293, m-Notch experiment, Fig. 3B, read-out: EC50 for APP (Aβ))",EC50 [4],EC50 [5]
"C[C@H](NC(=O)Cc1cc(F)cc(F)c1)C(=O)N[C@H](C(=O)OC(C)(C)C)c1ccccc1 [DAPT, N-[N-(3,5-Difluorophenacetyl-L-alanyl)]-S-phenylglycine t-Butyl Ester]",caused defects in somitogenesis and neurogenesis,10 to 100 nM,–,–,–,–
"C[C@H](NC(=O)Cc1cc(F)cc(F)c1)C(=O)N[C@H]1N=C(c2ccccc2)c2ccccc2N(C)C1=O [cpd E, (S,S)-2-[2-(3,5-Difluorophenyl)-acetylamino]-N-(1-methyl-2-oxo-5-phenyl-2,3-dihydro-1H-benzo [e] [1,4]diazepin-3-yl)-propionamide]",–,–,< 0.1 nM,~0.03 nM,~1 nM,~8 nM
